What was measured:
ALDH2 [1] = biological target: T1, ALDH2 (Homo sapiens, UniProt P05091); conditions: 1 mM propionaldehyde
T1 sequence (P05091 18-517): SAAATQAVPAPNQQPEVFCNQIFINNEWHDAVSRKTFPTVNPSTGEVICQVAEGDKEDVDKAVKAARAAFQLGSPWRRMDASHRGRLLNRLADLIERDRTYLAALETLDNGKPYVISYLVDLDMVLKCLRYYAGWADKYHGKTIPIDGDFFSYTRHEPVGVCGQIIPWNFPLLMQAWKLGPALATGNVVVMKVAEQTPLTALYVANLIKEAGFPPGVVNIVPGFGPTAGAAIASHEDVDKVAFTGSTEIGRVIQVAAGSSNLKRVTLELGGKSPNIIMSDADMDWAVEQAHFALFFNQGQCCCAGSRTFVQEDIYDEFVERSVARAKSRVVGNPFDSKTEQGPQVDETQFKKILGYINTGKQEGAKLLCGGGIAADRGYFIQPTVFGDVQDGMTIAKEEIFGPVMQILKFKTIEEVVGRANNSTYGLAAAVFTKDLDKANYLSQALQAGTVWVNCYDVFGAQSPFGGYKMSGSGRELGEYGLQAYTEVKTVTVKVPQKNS

ALDH1A1 [2] = biological target: T2, ALDH1A1 (Homo sapiens, UniProt P00352); conditions: for Mode of inhibition of ALDH1A1 versus varied NAD+: 1 mM propionaldehyde
T2 sequence (P00352 1-501): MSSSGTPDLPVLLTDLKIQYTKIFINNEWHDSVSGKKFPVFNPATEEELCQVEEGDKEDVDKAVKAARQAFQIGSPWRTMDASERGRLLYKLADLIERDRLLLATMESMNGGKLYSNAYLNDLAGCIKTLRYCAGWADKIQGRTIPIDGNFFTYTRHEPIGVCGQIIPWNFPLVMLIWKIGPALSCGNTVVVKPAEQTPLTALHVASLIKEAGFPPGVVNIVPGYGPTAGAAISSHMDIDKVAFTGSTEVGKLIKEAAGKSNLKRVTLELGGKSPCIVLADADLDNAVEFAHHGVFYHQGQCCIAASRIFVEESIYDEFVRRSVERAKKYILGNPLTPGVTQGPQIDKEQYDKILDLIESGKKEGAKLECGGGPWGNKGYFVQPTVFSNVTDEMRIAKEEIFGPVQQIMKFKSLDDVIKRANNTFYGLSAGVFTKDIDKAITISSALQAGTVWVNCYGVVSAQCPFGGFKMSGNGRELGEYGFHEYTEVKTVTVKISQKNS

ALDH1L1 (rat) = biological target: T3, ALDH1L1 (rat) (Rattus norvegicus, UniProt P28037); assay: ALDH1L1 dehydrogenase activity, NADPH formation at 340 nm; assay type: biochemical; conditions: read-out: IC50 ALDH1L1 (rat); 4 mM propionaldehyde, 500 μM NADP+
T3 sequence (P28037 1-902): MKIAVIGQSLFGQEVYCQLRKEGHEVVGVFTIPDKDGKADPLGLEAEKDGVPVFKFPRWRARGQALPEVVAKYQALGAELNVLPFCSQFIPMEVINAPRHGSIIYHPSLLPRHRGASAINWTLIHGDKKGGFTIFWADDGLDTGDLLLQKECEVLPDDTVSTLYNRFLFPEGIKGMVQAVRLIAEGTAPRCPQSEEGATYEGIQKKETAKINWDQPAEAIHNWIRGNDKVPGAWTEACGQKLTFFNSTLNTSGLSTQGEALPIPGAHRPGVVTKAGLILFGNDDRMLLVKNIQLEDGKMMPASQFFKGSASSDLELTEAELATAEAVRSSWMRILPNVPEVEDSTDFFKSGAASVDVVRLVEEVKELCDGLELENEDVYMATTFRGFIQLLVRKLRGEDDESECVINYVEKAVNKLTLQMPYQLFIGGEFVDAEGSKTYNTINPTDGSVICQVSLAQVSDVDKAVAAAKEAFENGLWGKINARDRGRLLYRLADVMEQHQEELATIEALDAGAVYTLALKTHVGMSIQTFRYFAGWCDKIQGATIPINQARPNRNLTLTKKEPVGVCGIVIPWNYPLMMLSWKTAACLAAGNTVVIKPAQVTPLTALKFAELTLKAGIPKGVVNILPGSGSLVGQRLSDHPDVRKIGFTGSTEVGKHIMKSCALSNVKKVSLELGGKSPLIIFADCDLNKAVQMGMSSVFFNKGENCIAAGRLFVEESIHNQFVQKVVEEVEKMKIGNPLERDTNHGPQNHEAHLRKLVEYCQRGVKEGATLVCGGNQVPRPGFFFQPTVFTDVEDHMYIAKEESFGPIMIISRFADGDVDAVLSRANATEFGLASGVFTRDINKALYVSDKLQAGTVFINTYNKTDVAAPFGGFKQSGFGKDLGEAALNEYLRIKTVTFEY

ALDH3A1 = biological target: T4, ALDH3A1 (Homo sapiens, UniProt P30838); assay: ALDH3A1 dehydrogenase activity; assay type: biochemical; conditions: read-out: IC50 ALDH3A1; 300 μM benzaldehyde, 300 μM NADP+, pH 7.5
T4 sequence (P30838 1-453): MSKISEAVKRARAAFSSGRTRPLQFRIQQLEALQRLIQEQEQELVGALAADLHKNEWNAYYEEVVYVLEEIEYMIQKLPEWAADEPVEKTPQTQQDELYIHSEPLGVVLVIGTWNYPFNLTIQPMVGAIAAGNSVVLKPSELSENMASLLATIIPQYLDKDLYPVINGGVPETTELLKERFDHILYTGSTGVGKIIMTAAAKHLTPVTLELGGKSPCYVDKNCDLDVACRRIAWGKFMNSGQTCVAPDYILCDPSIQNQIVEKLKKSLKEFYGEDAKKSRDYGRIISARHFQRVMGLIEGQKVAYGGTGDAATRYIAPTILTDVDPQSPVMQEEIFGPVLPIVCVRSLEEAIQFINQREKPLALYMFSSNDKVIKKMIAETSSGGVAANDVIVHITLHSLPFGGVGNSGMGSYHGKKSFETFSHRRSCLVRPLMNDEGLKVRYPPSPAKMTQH

ALDH1A1 [3] = biological target: T2, ALDH1A1; assay: ALDH1A1 dehydrogenase activity, NADH formation at 340 nm; assay type: biochemical; conditions: for IC50: read-out: IC50 ALDH1A1, 100 μM propionaldehyde, 200 μM NAD+, 1% DMSO, pH 7.5, 25 °C; for inhibition at 10 µM: read-out: Inhibition of ALDH1A1 at 10 μM
ALDH1B1 = biological target: T5, ALDH1B1 (Homo sapiens, UniProt P30837); conditions: read-out: IC50 ALDH1B1; 200 μM propionaldehyde, 500 μM NAD+, 25 °C
T5 sequence (P30837 18-517): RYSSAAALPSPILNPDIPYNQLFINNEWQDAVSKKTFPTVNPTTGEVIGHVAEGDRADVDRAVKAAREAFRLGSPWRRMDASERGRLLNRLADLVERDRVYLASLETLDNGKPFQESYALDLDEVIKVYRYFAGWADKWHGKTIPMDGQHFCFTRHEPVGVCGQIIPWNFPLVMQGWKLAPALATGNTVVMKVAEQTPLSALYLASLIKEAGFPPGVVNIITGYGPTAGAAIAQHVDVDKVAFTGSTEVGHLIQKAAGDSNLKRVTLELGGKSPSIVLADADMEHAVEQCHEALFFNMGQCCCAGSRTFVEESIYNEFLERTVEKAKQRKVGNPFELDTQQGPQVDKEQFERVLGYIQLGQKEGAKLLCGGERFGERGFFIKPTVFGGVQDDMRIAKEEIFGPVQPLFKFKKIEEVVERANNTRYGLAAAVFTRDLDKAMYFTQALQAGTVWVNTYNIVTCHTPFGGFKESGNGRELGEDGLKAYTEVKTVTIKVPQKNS

ALDH1A2 = biological target: T6, ALDH1A2 (Homo sapiens, UniProt O94788); conditions: read-out: IC50 ALDH1A2; 100 μM propionaldehyde, 200 μM NAD+, 1% DMSO, pH 7.5, 25 °C
T6 sequence (O94788 1-518): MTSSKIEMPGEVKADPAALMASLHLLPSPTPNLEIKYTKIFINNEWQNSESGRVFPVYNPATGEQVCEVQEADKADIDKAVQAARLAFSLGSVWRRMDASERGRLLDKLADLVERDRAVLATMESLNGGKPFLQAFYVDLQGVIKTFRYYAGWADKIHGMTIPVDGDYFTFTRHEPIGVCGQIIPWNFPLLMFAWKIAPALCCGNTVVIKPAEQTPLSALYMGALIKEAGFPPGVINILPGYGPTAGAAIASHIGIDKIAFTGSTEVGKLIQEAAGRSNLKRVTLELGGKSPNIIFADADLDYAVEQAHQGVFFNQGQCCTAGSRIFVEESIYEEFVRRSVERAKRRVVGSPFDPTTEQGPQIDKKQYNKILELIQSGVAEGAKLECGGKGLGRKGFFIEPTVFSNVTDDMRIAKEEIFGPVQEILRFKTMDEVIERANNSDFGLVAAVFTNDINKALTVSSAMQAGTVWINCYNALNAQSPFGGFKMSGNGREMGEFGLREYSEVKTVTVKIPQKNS

ALDH1A3 = biological target: T7, ALDH1A3 (Homo sapiens, UniProt P47895); conditions: read-out: IC50 ALDH1A3; 100 μM propionaldehyde, 200 μM NAD+, 1% DMSO, pH 7.5, 25 °C
T7 sequence (P47895 1-512): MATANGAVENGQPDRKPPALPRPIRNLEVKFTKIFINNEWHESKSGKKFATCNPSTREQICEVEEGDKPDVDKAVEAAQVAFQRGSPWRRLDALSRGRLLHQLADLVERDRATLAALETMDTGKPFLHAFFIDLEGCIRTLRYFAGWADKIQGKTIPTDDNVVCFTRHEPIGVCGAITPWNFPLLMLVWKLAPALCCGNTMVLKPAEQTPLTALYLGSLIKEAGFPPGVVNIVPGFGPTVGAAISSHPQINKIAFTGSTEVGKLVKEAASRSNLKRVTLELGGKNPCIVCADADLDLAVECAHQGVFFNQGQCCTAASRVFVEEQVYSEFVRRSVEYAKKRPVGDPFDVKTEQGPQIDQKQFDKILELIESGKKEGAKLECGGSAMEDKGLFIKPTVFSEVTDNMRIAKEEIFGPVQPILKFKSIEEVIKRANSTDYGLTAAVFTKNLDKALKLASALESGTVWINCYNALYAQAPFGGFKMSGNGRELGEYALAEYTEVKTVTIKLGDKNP

ALDH2 [4] = biological target: T1, ALDH2; assay: ALDH2 dehydrogenase activity, NADH formation at 340 nm; assay type: biochemical; conditions: for Emax: read-out: Max inhibition ALDH2
ALDH2 [5] = biological target: T1, ALDH2; conditions: prior work; cited from earlier work

| Structure (SMILES) | Mode of inhibition of ALDH2 versus varied NAD+ (ALDH2 [1]) | IC50 (ALDH1L1 (rat)) [µM] | IC50 (ALDH3A1) [µM] | IC50 (ALDH1A1 [3]) [µM] | further results |
| --- | --- | --- | --- | --- | --- |
| Cc1cc(=O)oc2cc(OCC#N)ccc12 [Compound 30] | noncompetitive (mixed-type) |  |  |  | Mode of inhibition of ALDH1A1 versus varied NAD+ (ALDH1A1 [2]): noncompetitive |
| O=c1c(-c2ccc(O)cc2)coc2cc(O[C@@H]3O[C@H](CO)[C@@H](O)[C@H](O)[C@H]3O)ccc12 [Daidzin, daidzin, reference compound] |  | > 100 | > 100 |  |  |
| C/C(=N\O)c1cc2cc(Br)ccc2oc1=O [Compound 36] | competitively |  | > 100 | > 100 | IC50 (ALDH1B1): > 100 µM; IC50 (ALDH1A2): > 100 µM |
| COC(=O)C(C)Oc1ccc2c(C)cc(=O)oc2c1 (centres unmarked) [Compound 4] | competitive | > 100 | > 100 | > 100 | IC50 (ALDH1B1): > 100 µM; IC50 (ALDH1A2): > 100 µM; IC50 (ALDH1A3): > 100 µM |
| Cc1c(Cc2ccccc2)c(=O)oc2cc(OS(C)(=O)=O)ccc12 [Compound 34] |  |  | > 100 |  |  |
| Cc1oc2cc3oc(=O)c4ccccc4c3cc2c1C [Compound 9] |  |  | > 100 | > 100 | Emax (ALDH2 [4]): 50 to 60% |
| Cc1c(C)c2c(cc(C)c3c(C)coc32)oc1=O [Compound 23] |  |  | > 100 | > 100 | Emax (ALDH2 [4]): 50 to 60% |
| Cc1oc2cc3oc(=O)c4c(c3cc2c1C)CCC4 [Compound 11] |  |  | > 100 |  |  |
| CCCc1c(C)c2cc3c(C)c(C)oc3cc2oc1=O [Compound 2] | competitive | > 100 | > 100 |  |  |
| Cc1oc2cc3oc(=O)c(CCC(=O)N4CCCCC4)c(C)c3cc2c1C [Compound 15] | competitive |  | > 100 |  | inhibition at 10 µM (ALDH2 [4]; read-out: Inhibition of ALDH2 at 10 μM): > 90%; inhibition at 10 µM (ALDH1A1 [3]): > 90%; Mode of inhibition of ALDH1A1 versus varied NAD+ (ALDH1A1 [2]): uncompetitive |
| Cc1oc2cc3oc(=O)c(C)c(C)c3cc2c1C [Compound 3] | competitive | > 100 | > 100 | > 100 | Mode of inhibition of ALDH2 with respect to varied propionaldehyde (ALDH2 [5]): non-competitive (mixed-type) |
| Cc1oc2cc3oc(=O)c4c(c3cc2c1C)CCCC4 [Compound 10] |  |  | > 100 |  | IC50 (ALDH1A3): > 100 µM |
| CCCc1c(C)c2cc3c(C)coc3cc2oc1=O [Compound 1] |  | > 100 | > 100 |  |  |
| CCCc1cc(=O)oc2cc3oc(C)c(C)c3cc12 [Compound 7] |  |  | > 100 | > 100 |  |
| CCN(CC)c1ccc2c(C)cc(=O)oc2c1 [Compound 32] |  |  | > 100 |  | Fold selective for ALDH1A1 versus ALDH1A2 (ALDH1A1 [3]): 10 fold; inhibition at 10 µM (ALDH1A1 [3]): ~85%; IC50 (ALDH1B1): > 100 µM; IC50 (ALDH1A3): > 100 µM; Mode of inhibition of ALDH1A1 versus varied acetaldehyde (ALDH1A1 [2]; 1 mM NAD+, varied acetaldehyde): noncompetitive; Mode of inhibition of ALDH1A1 versus varied NAD+ (ALDH1A1 [2]): noncompetitive |

Source: PMC5765548 (Journal of medicinal chemistry, 2017)
